Source: patent US5840684A, “Glycopeptide antibiotic derivatives” (Eli Lilly and Company, priority 1995, dated 1998)

Assays:
[1] = test system: Staphylococcus aureus S13E; assay type: cell-based
Description: (§1) The MIC's were determined using a standard broth micro-dilution assay.

[2] = test system: Staphylococcus aureus SA1199B; assay type: cell-based
Description: as §1

[3] = test system: Entercoccus faecium 180-1; assay: broth micro-dilution MIC; assay type: cell-based
Description: as §1

Entercoccus faecium 276 = assay: broth micro-dilution MIC; assay type: cell-based
Description: as §1

[4] = test system: Staphylococcus aureus 446; assay: broth micro-dilution MIC; assay type: cell-based
Description: as §1

[5] = test system: Staphylococcus aureus 447; assay: broth micro-dilution MIC; assay type: cell-based
Description: as §1

[6] = test system: Staphylococcus aureus 489; assay: broth micro-dilution MIC; assay type: cell-based
Description: as §1

[7] = test system: Staphylococcus aureus 491; assay: broth micro-dilution MIC; assay type: cell-based
Description: as §1

[8] = test system: Staphylococcus aureus SA1199A; assay: broth micro-dilution MIC; assay type: cell-based
Description: as §1

[9] = test system: Staphylococcus aureus SA1199; assay: broth micro-dilution MIC; assay type: cell-based
Description: as §1

[10] = test system: Staphylococcus aureus X400; assay: broth micro-dilution MIC; assay type: cell-based
Description: as §1

[11] = test system: Staphylococcus aureus X778; assay: broth micro-dilution MIC; assay type: cell-based
Description: as §1

[12] = test system: Streptococcus pyogenes C203; assay: broth micro-dilution MIC; assay type: cell-based
Description: as §1

Entercoccus faecium 180 = assay: broth micro-dilution MIC; assay type: cell-based; settings: Entercoccus faecium 180
Description: (§2) The formula I compounds have in vitro and in vivo activity against Gram-positive pathogenic bacteria. The MIC's were determined using a standard broth micro-dilution assay.

Entercoccus faecium 2041 = assay: broth micro-dilution MIC; assay type: cell-based; settings: Entercoccus faecium 2041
Description: as §2

[13] = test system: Enterococcus gallinarum 245; assay: broth micro-dilution MIC; assay type: cell-based; settings: Enterococcus gallinarum 245
Description: as §2

[14] = test system: Staphylococcus epidermidis 270; assay: broth micro-dilution MIC; assay type: cell-based
Description: as §2

[15] = test system: Staphylococcus haemolyticus 105; assay: broth micro-dilution MIC; assay type: cell-based
Description: as §2

[16] = test system: Staphylococcus haemolyticus 415; assay: broth micro-dilution MIC; assay type: cell-based
Description: as §2

[17] = test system: Streptococcus pneumoniae P1; assay: broth micro-dilution MIC; assay type: cell-based
Description: as §2

[18] = test system: vancomycin-resistant enterococci; assay: broth micro-dilution, mean geometric MIC; assay type: cell-based, Enterococcus faecium and Enterococcus faecalis; settings: enterococci, 24-hour incubation
[19] = test system: vancomycin-susceptible enterococci; assay: broth micro-dilution, mean geometric MIC; assay type: cell-based, Enterococcus faecium and Enterococcus faecalis; settings: enterococci, 24-hour incubation

CNC(CC(C)C)C(=O)NC1C(=O)NC(CC(N)=O)C(=O)NC2C(=O)NC3C(=O)NC(C(=O)NC(C(=O)O)c4cc(O)cc(O)c4-c4cc3ccc4O)C(OC3CC(C)(N)C(O)C(C)O3)c3ccc(c(Cl)c3)Oc3cc2cc(c3OC2OC(CO)C(O)C(O)C2OC2CC(C)(NCc3ccc(OC)c(OCC4CCCCC4)c3)C(O)C(C)O2)Oc2ccc(cc2Cl)C1O (stereo not drawn) [Compound 142]
1.5 µg/mL: mean geometric MIC, Vancomycin Sensitive Strains [19]
45 µg/mL: mean geometric MIC, Vancomycin Resistant Strains [18]
0.25 µg/mL: MIC [14]
0.5 µg/mL: MIC [6] | MIC [7] | MIC (Entercoccus faecium 180)
2 µg/mL: MIC [1] | MIC [2] | MIC [4] | MIC [5]
1 µg/mL: MIC (Entercoccus faecium 276) | MIC [9] | MIC [10] | MIC [11] | MIC [13] | MIC [15] | MIC [16]
≤ 0.06 µg/mL: MIC [3] | MIC [8] | MIC [12] | MIC (Entercoccus faecium 2041) | MIC [17]

CN[C@H](CC(C)C)C(=O)N[C@H]1C(=O)N[C@@H](CC(N)=O)C(=O)N[C@H]2C(=O)N[C@H]3C(=O)N[C@H](C(=O)N[C@H](C(=O)O)c4cc(O)cc(O)c4-c4cc3ccc4O)[C@H](O[C@H]3C[C@](C)(N)[C@@H](O)[C@H](C)O3)c3ccc(c(Cl)c3)Oc3cc2cc(c3O[C@@H]2O[C@H](CO)[C@@H](O)[C@H](O)[C@H]2O[C@H]2C[C@](C)(NCc3cccc(-c4ccccc4)c3)[C@@H](O)[C@H](C)O2)Oc2ccc(cc2Cl)[C@H]1O [Compound 91]
1 µg/mL: MIC [7]
2.8 µg/mL: mean geometric MIC, Vancomycin Resistant Strains [18]
2 µg/mL: MIC [13] | MIC [15] | MIC [16]
0.11 µg/mL: mean geometric MIC, Vancomycin Sensitive Strains [19]
≤ 0.06 µg/mL: MIC [1] | MIC [3] | MIC (Entercoccus faecium 276) | MIC [6] | MIC [8] | MIC [9] | MIC [11] | MIC [12] | MIC (Entercoccus faecium 2041) | MIC [17]
0.5 µg/mL: MIC [2] | MIC [4] | MIC [5] | MIC [10] | MIC (Entercoccus faecium 180) | MIC [14]

CCCOC(c1ccccc1)c1ccc(CNC2(C)CC(OC3C(Oc4c5cc6cc4Oc4ccc(cc4Cl)C(OC4CC(C)(N)C(O)C(C)O4)C4NC(=O)C(NC(=O)C6NC(=O)C(CC(N)=O)NC(=O)C(NC(=O)C(CC(C)C)NC)C(O)c6ccc(c(Cl)c6)O5)c5ccc(O)c(c5)-c5c(O)cc(O)cc5C(C(=O)O)NC4=O)OC(CO)C(O)C3O)OC(C)C2O)cc1 (stereo not drawn) [Compound 128]
4 µg/mL: MIC [4]
2 µg/mL: MIC [2] | MIC [7] | MIC [13] | MIC [16]
0.11 µg/mL: mean geometric MIC, Vancomycin Sensitive Strains [19]
≤ 0.06 µg/mL: MIC [12] | MIC [17]
2.0 µg/mL: mean geometric MIC, Vancomycin Resistant Strains [18]
1 µg/mL: MIC [1] | MIC (Entercoccus faecium 276) | MIC [5] | MIC [6] | MIC [10] | MIC [11] | MIC (Entercoccus faecium 180) | MIC [14] | MIC [15]
0.5 µg/mL: MIC [8] | MIC [9] | MIC (Entercoccus faecium 2041)
0.125 µg/mL: MIC [3]
